Data as given in patent publication US20120264685A1 (priority 2009, published 2012).
Where a SMILES comes first, the peptide text is derived from it. Where no end group is shown, it is not given here. [ ]: non-standard residue; d: D form. ξ: configuration not given here. ξαMeBip(2'-Et,4'-OMe) = CCc1cc(OC)ccc1-c1ccc(CC(C)(N)C(=O)O)cc1; ξBip(2'-Et-4'-OMe) = CCc1cc(OC)ccc1-c1ccc(CC(N)C(=O)O)cc1; αMePhe(2,6-F2) = C[C@](N)(Cc1c(F)cccc1F)C(=O)O; ξαMePhe(2,6-F2) = CC(N)(Cc1c(F)cccc1F)C(=O)O; αMePhe(2-F) = C[C@](N)(Cc1ccccc1F)C(=O)O; αMeBip(OMe) = alpha-methylated Bip(OMe); ξαMe(hhPhe) = CC(N)(CCCc1ccccc1)C(=O)O; ξαMePhe(2-F) = CC(N)(Cc1ccccc1F)C(=O)O; hhPhe = N[C@@H](CCCc1ccccc1)C(=O)O; ξhhPhe = NC(CCCc1ccccc1)C(=O)O; ξαMeD = CC(N)(CC(=O)O)C(=O)O; αMeP = C[C@@]1(C(=O)O)CCCN1; ξαMeP = CC1(C(=O)O)CCCN1; Ac5c = NC1(C(=O)O)CCCC1; ξαMeS = CC(N)(CO)C(=O)O; Aib = CC(C)(N)C(=O)O

How the values were obtained:
[1] = test system: RIN5F (Rat Insulinoma) cells; test: In vitro glucose-dependent insulin secretion (RIN5F cell assay); format: cell-based; conditions: 16.7-mM glucose load, n = 3, mean ± S.D.
Experimental: RIN5F (Rat Insulinoma) cells were cultured in RPMI 1640 medium supplemented with sodium pyruvate (1 mM) HEPES and Glucose (4.5 g/L) in a humidified incubator (5% CO2), at 37° C. After trypsinization, RIN5F cells were seeded at a concentration of 0.2×10^6 cells per well, in 12 well plates. The cells were grown overnight to 80% confluence and insulin secretion experiments were performed as follows (Montrose-Rafizadeh C., et al., Mol. Cell. Endo. 1997, 130, 109.; Wang, X., et al., Endocrinology 2001, 5, 1820).
The cells were washed once with PBS solution followed by 40 min. incubation in fresh Krebs-Ringer Balanced Buffer containing NaCl (115 mmol/L), KCl (4.7 mmol/L), CaCl2 (1.28 mmol/L), MgSO4.7H2O (1.2 mmol/L), KH2PO4 (1.2 mmol/L), NaHCO3 (10 mmol/L) and HEPES (25 mmol/L), containing Glucose (1.1 mM) and B.S.A (0.5%), pH 7.4. The buffer was replaced after 40 min. and the cells were incubated (37° C.) with the test peptidomimetics, at different concentration, for 30 min., both in the presence (16.7 mM) and absence (0 mM) of glucose load. The supernatant was collected and the insulin amount was measured by ultra sensitive Rat insulin ELISA kit (Crystal Chem, IL). The protein was estimated in the supernatant using Bicinchoninic Acid kit, according to the manufacturer's protocol (Sigma Aldrich, MO). The total insulin content obtained in Pico-gram (pg) was divided with the total protein (μg) in order to normalize for differences in cell density between wells.

human glucagon receptor = human glucagon receptor (human, UniProt P47871 26-477); test: cell-based or functional assay
human glucagon receptor, sequence (P47871 26-477): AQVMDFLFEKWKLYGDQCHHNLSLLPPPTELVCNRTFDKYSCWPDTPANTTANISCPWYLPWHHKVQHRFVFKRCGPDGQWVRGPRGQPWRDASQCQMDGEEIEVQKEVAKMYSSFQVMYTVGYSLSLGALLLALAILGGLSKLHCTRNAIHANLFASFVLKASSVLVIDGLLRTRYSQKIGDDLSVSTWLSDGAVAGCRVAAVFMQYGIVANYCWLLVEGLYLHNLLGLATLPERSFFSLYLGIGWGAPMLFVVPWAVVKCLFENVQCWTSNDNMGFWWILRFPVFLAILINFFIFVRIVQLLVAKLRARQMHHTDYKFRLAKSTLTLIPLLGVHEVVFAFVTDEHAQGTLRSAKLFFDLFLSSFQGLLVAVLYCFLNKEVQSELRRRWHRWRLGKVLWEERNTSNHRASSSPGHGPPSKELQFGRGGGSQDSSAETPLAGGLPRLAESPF

cAMP production (pmol/ml/µg prt) with saturated glucagon peptide, at 1 nM (human glucagon receptor) | cAMP production (pmol/ml/µg prt) with saturated glucagon peptide, at 10 nM (human glucagon receptor) | cAMP production (pmol/ml/µg prt) with saturated glucagon peptide, at 100 nM (human glucagon receptor) | cAMP production (pmol/ml/µg prt) with saturated glucagon peptide, at 1 µM (human glucagon receptor) | cAMP production (pmol/ml/µg prt) with saturated glucagon peptide, at 10 µM (human glucagon receptor) | Molecule | Insulin secretion ([1]; 0.1 nM test compd.) | Insulin secretion ([1]; 1 nM test compd.) | Insulin secretion ([1]; 10 nM test compd.)
 |  |  |  |  | CCc1cc(OC)ccc1-c1ccc(CC(C)(NC(=O)[C@H](CC(=O)O)NC(=O)[C@H](CO)NC(=O)[C@@H](NC(=O)C(C)(Cc2ccccc2F)NC(=O)[C@@H](NC(=O)CNC(=O)[C@H](CCC(N)=O)NC(=O)C2(C)CCCN2C(=O)[C@H](Cc2c[nH]cn2)NC(=O)[C@@H](N)C(C)C)[C@@H](C)O)[C@@H](C)O)C(=O)NC(CCCc2ccccc2)C(N)=O)cc1 (some centres unmarked) [compound 20] (H-VH[ξαMeP]QGT[ξαMePhe(2-F)]TSD[ξαMeBip(2'-Et,4'-OMe)][ξhhPhe]-NH2) | 11.1 ± 0.12 pg/µg/h | 13.1 ± 0.13 pg/µg/h | 19.0 ± 0.16 pg/µg/h
 |  |  |  |  | CCc1cc(OC)ccc1-c1ccc(CC(C)(NC(=O)[C@H](CC(=O)O)NC(=O)[C@H](CO)NC(=O)[C@@H](NC(=O)[C@H](Cc2ccccc2)NC(=O)[C@@H](NC(=O)CNC(=O)[C@H](CCC(N)=O)NC(=O)C2(C)CCCN2C(=O)[C@H](Cc2c[nH]cn2)NC(=O)[C@@H](N)C(C)C)[C@@H](C)O)[C@@H](C)O)C(=O)NC(CCCc2ccccc2)C(N)=O)cc1 (some centres unmarked) [compound 8] (H-VH[ξαMeP]QGTFTSD[ξαMeBip(2'-Et,4'-OMe)][ξhhPhe]-NH2) | 12.6 ± 0.25 pg/µg/h | 15.3 ± 0.31 pg/µg/h | 29.7 ± 0.48 pg/µg/h
 |  |  |  |  | CCc1cc(OC)ccc1-c1ccc(CC(C)(NC(=O)[C@H](CC(=O)O)NC(=O)[C@H](CO)NC(=O)[C@@H](NC(=O)[C@H](Cc2ccccc2)NC(=O)[C@@H](NC(=O)CNC(=O)[C@H](CCC(=O)O)NC(=O)C2(NC(=O)[C@H](Cc3c[nH]cn3)NC(=O)[C@@H](N)C(C)C)CCCC2)[C@@H](C)O)[C@@H](C)O)C(=O)NC(CCCc2ccccc2)C(N)=O)cc1 (some centres unmarked) [compound 15] (H-VH[Ac5c]EGTFTSD[ξαMeBip(2'-Et,4'-OMe)][ξhhPhe]-NH2) | 15.3 ± 0.19 pg/µg/h | 21.2 ± 0.11 pg/µg/h | 35.5 ± 0.19 pg/µg/h
 |  |  |  |  | CCc1cc(OC)ccc1-c1ccc(CC(NC(=O)[C@H](CC(=O)O)NC(=O)[C@H](CO)NC(=O)[C@@H](NC(=O)C(C)(Cc2c(F)cccc2F)NC(=O)[C@@H](NC(=O)CNC(=O)[C@H](CCC(=O)O)NC(=O)[C@H](CO)NC(=O)[C@H](Cc2c[nH]cn2)NC(=O)[C@@H](N)C(C)C)[C@@H](C)O)[C@@H](C)O)C(=O)NC(C)(CCCc2ccccc2)C(N)=O)cc1 (some centres unmarked) [compound 103] (H-VHSEGT[ξαMePhe(2,6-F2)]TSD[ξBip(2'-Et-4'-OMe)][ξαMe(hhPhe)]-NH2) | 12.3 ± 0.33 pg/µg/h | 14.1 ± 0.36 pg/µg/h | 28.0 ± 0.16 pg/µg/h
 |  |  |  |  | CCc1cc(OC)ccc1-c1ccc(CC(NC(=O)C(C)(CC(=O)O)NC(=O)C(C)(CO)NC(=O)[C@@H](NC(=O)C(C)(Cc2c(F)cccc2F)NC(=O)[C@@H](NC(=O)CNC(=O)[C@H](CCC(=O)O)NC(=O)C2(C)CCCN2C(=O)[C@H](Cc2c[nH]cn2)NC(=O)[C@@H](N)C(C)C)[C@@H](C)O)[C@@H](C)O)C(=O)NC(C)(CCCc2ccccc2)C(N)=O)cc1 (some centres unmarked) [compound 130] (H-VH[ξαMeP]EGT[ξαMePhe(2,6-F2)]T[ξαMeS][ξαMeD][ξBip(2'-Et-4'-OMe)][ξαMe(hhPhe)]-NH2) | 15.6 ± 0.33 pg/µg/h | 21.8 ± 0.16 pg/µg/h | 35.6 ± 0.26 pg/µg/h
 |  |  |  |  | CCc1cc(OC)ccc1-c1ccc(CC(C)(NC(=O)C(C)(CC(=O)O)NC(=O)[C@H](CO)NC(=O)[C@@H](NC(=O)C(C)(Cc2ccccc2F)NC(=O)[C@@H](NC(=O)CNC(=O)[C@H](CCC(=O)O)NC(=O)C(C)(C)NC(=O)[C@H](Cc2c[nH]cn2)NC(=O)[C@@H](N)C(C)C)[C@@H](C)O)[C@@H](C)O)C(=O)NC(CCCc2ccccc2)C(N)=O)cc1 (some centres unmarked) [compound 71] (H-VH[Aib]EGT[ξαMePhe(2-F)]TS[ξαMeD][ξαMeBip(2'-Et,4'-OMe)][ξhhPhe]-NH2) | 15.6 ± 0.30 pg/µg/h | 21.8 ± 0.11 pg/µg/h | 35.6 ± 0.20 pg/µg/h
 |  |  |  |  | CCc1cc(OC)ccc1-c1ccc(CC(C)(NC(=O)[C@H](CC(=O)O)NC(=O)[C@H](CO)NC(=O)[C@@H](NC(=O)[C@H](Cc2ccccc2)NC(=O)[C@@H](NC(=O)CNC(=O)[C@H](CCC(N)=O)NC(=O)[C@H](CO)NC(=O)[C@H](Cc2c[nH]cn2)NC(=O)[C@@H](N)C(C)C)[C@@H](C)O)[C@@H](C)O)C(=O)NC(CCCc2ccccc2)C(N)=O)cc1 (some centres unmarked) [compound 5] (H-VHSQGTFTSD[ξαMeBip(2'-Et,4'-OMe)][ξhhPhe]-NH2) | 12.1 ± 0.51 pg/µg/h | 14.1 ± 0.19 pg/µg/h | 28.1 ± 0.29 pg/µg/h
 |  |  |  |  | CCc1cc(OC)ccc1-c1ccc(CC(C)(NC(=O)[C@H](CC(=O)O)NC(=O)[C@H](CO)NC(=O)[C@@H](NC(=O)C(C)(Cc2c(F)cccc2F)NC(=O)[C@@H](NC(=O)CNC(=O)[C@H](CCC(N)=O)NC(=O)[C@H](CO)NC(=O)[C@H](Cc2c[nH]cn2)NC(=O)[C@@H](N)C(C)C)[C@@H](C)O)[C@@H](C)O)C(=O)NC(CCCc2ccccc2)C(N)=O)cc1 (some centres unmarked) [compound 25] (H-VHSQGT[ξαMePhe(2,6-F2)]TSD[ξαMeBip(2'-Et,4'-OMe)][ξhhPhe]-NH2) | 12.6 ± 0.20 pg/µg/h | 15.9 ± 0.31 pg/µg/h | 28.4 ± 0.11 pg/µg/h
 |  |  |  |  | CCc1cc(OC)ccc1-c1ccc(CC(NC(=O)C(C)(CC(=O)O)NC(=O)C(C)(CO)NC(=O)[C@@H](NC(=O)C(C)(Cc2ccccc2F)NC(=O)[C@@H](NC(=O)CNC(=O)[C@H](CCC(=O)O)NC(=O)[C@H](CO)NC(=O)[C@H](Cc2c[nH]cn2)NC(=O)[C@@H](N)C(C)C)[C@@H](C)O)[C@@H](C)O)C(=O)NC(C)(CCCc2ccccc2)C(N)=O)cc1 (some centres unmarked) [compound 119] (H-VHSEGT[ξαMePhe(2-F)]T[ξαMeS][ξαMeD][ξBip(2'-Et-4'-OMe)][ξαMe(hhPhe)]-NH2) | 12.4 ± 0.22 pg/µg/h | 15.2 ± 0.32 pg/µg/h | 29.6 ± 0.50 pg/µg/h
 |  |  |  |  | CCc1cc(OC)ccc1-c1ccc(CC(C)(NC(=O)[C@H](CC(=O)O)NC(=O)C(C)(CO)NC(=O)[C@@H](NC(=O)[C@H](Cc2ccccc2)NC(=O)[C@@H](NC(=O)CNC(=O)[C@H](CCC(N)=O)NC(=O)C2(C)CCCN2C(=O)[C@H](Cc2c[nH]cn2)NC(=O)[C@@H](N)C(C)C)[C@@H](C)O)[C@@H](C)O)C(=O)NC(C)(CCCc2ccccc2)C(N)=O)cc1 (some centres unmarked) [compound 160] (H-VH[ξαMeP]QGTFT[ξαMeS]D[ξαMeBip(2'-Et,4'-OMe)][ξαMe(hhPhe)]-NH2) | 16.8 ± 0.20 pg/µg/h | 22.7 ± 0.29 pg/µg/h | 36.6 ± 0.31 pg/µg/h
 |  |  |  |  | CCc1cc(OC)ccc1-c1ccc(CC(C)(NC(=O)[C@H](CC(=O)O)NC(=O)C(C)(CO)NC(=O)[C@@H](NC(=O)C(C)(Cc2c(F)cccc2F)NC(=O)[C@@H](NC(=O)CNC(=O)[C@H](CCC(N)=O)NC(=O)C(C)(C)NC(=O)[C@H](Cc2c[nH]cn2)NC(=O)[C@@H](N)C(C)C)[C@@H](C)O)[C@@H](C)O)C(=O)NC(C)(CCCc2ccccc2)C(N)=O)cc1 (some centres unmarked) [compound 175] (H-VH[Aib]QGT[ξαMePhe(2,6-F2)]T[ξαMeS]D[ξαMeBip(2'-Et,4'-OMe)][ξαMe(hhPhe)]-NH2) | 12.4 ± 0.22 pg/µg/h | 15.2 ± 0.32 pg/µg/h | 29.6 ± 0.50 pg/µg/h
5 pmol/ml/µg prt | 2 pmol/ml/µg prt | 0 pmol/ml/µg prt | 0 pmol/ml/µg prt | 0 pmol/ml/µg prt | VVHSEGT[αMePhe(2-F)]TSD[αMeBip(OMe)][hhPhe]-NH2 [Seq. ID. No. 217] |  |  | 
19 pmol/ml/µg prt | 17 pmol/ml/µg prt | 15 pmol/ml/µg prt | 14 pmol/ml/µg prt | 12 pmol/ml/µg prt | VVH[Aib]EGT[αMePhe(2,6-F2)]TSD[αMeBip(OMe)][hhPhe]-NH2 [Seq. ID. No. 227] |  |  | 
6 pmol/ml/µg prt | 5 pmol/ml/µg prt | 2 pmol/ml/µg prt | 0 pmol/ml/µg prt | 0 pmol/ml/µg prt | VVH[Aib]EGTFTSD[αMeBip(OMe)][hhPhe] (not fully specified (C-terminus); printed as VVH-Aib-EGTFTSD-(αMe-Bip(OMe))-(APPA)) [Seq. ID. No. 211] |  |  | 
0 pmol/ml/µg prt | 0 pmol/ml/µg prt | 0 pmol/ml/µg prt | 0 pmol/ml/µg prt | 0 pmol/ml/µg prt | VVH[αMeP]QGT[αMePhe(2-F)]TSD[αMeBip(OMe)][hhPhe]-NH2 [Seq. ID. No. 216] |  |  | 
